# Laboratory results from ChEMBL document CHEMBL4364276, “Discovery of 4-phenyl-2H-benzo[b][1,4]oxazin-3(4H)-one derivatives as potent and orally active PI3K/mTOR dual inhibitors” (Eur J Med Chem, 2019).
# Tests used:
# PC-12 = test: Cytotoxicity against rat PC12 cells assessed as reduction in cell viability at 0.625 to 20 uM incubated for 72 hrs by MTT assay; assay type: cell-based; conditions: pc-12, 72 h
# HeLa [1] = test: Antiproliferative activity against human HeLa cells assessed as reduction in cell viability incubated for 72 hrs by MTT assay; assay type: functional, cell-based
# HeLa [2] = test: Inhibition of colony formation in human HeLa cells at > 5 uM incubated for 2 weeks crystal violet staining based assay; assay type: functional
# [3] = Toxicity in BALB/c mouse xenografted with human HeLa cells assessed as reduction in body weight at 20 to 50 mg/kg, ig administered for 30 days; assay type: organism-based; conditions: in vivo, po, 720 h
# [4] = molecular target: Activin receptor type-1-like (Homo sapiens) (UniProt P37023); test: Inhibition of human ALK1 at 100 nM using casein as substrate by [gamma-33P]-ATP assay
# [5] = molecular target: Bone morphogenetic protein receptor type-1B (Homo sapiens) (UniProt O00238); test: Inhibition of human ALK6 at 100 nM using casein as substrate by [gamma-33P]-ATP assay
# [6] = molecular target: Tyrosine-protein kinase Mer (Homo sapiens) (UniProt Q12866); test: Inhibition of human c-MER at 100 nM using poly[Glu:Tyr] (4:1) as substrate by [gamma-33P]-ATP assay
# [7] = molecular target: Calcium/calmodulin-dependent protein kinase type 1B (Homo sapiens) (UniProt Q6P2M8); test: Inhibition of human CAMK1B at 100 nM using KKALRRQETVDAL as substrate by [gamma-33P]-ATP assay
# [8] = molecular target: Dual specificity protein kinase CLK3 (Homo sapiens) (UniProt P49761); test: Inhibition of human CLK3 at 100 nM using MBP as substrate by [gamma-33P]-ATP assay
# Dual specificity protein kinase CLK3 (Homo sapiens), sequence (P49761 whole entry, looked up): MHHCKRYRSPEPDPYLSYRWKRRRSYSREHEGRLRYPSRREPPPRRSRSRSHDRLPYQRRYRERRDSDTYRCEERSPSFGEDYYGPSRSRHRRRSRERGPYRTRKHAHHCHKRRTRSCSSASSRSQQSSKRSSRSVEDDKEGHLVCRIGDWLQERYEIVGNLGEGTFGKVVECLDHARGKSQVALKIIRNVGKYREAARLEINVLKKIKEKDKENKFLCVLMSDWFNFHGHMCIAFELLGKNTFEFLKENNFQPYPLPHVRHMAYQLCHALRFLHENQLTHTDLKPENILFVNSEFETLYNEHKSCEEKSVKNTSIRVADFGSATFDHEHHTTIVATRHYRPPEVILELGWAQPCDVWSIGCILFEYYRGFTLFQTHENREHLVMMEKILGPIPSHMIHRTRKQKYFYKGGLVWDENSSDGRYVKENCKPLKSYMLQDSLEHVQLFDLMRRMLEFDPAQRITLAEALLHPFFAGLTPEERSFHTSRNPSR
# [9] = molecular target: Dual specificity protein kinase CLK4 (Homo sapiens) (UniProt Q9HAZ1); test: Inhibition of human CLK4 at 100 nM using MBP as substrate by [gamma-33P]-ATP assay
# [10] = molecular target: Ephrin type-A receptor 6 (Homo sapiens) (UniProt Q9UF33); test: Inhibition of human EPHA6 at 100 nM using poly[Glu:Tyr] (4:1) as substrate by [gamma-33P]-ATP assay
# [11] = molecular target: Ephrin type-A receptor 8 (Homo sapiens) (UniProt P29322); test: Inhibition of human EPHA8 at 100 nM using poly[Glu:Tyr] (4:1) as substrate by [gamma-33P]-ATP assay
# [12] = molecular target: Fibroblast growth factor receptor 4 (Homo sapiens) (UniProt P22455); test: Inhibition of human FGFR4 at 100 nM using poly[Glu:Tyr] (4:1) as substrate by [gamma-33P]-ATP assay
# [13] = molecular target: Mitogen-activated protein kinase 8 (Homo sapiens) (UniProt P45983); test: Inhibition of human JNK1 at 100 nM using ATF2 as substrate by [gamma-33P]-ATP assay
# [14] = molecular target: Mitogen-activated protein kinase kinase kinase 2 (Homo sapiens) (UniProt Q9Y2U5); test: Inhibition of human MEKK2 at 100 nM using MBP as substrate by [gamma-33P]-ATP assay
# Mitogen-activated protein kinase kinase kinase 2 (Homo sapiens), sequence (Q9Y2U5 whole entry): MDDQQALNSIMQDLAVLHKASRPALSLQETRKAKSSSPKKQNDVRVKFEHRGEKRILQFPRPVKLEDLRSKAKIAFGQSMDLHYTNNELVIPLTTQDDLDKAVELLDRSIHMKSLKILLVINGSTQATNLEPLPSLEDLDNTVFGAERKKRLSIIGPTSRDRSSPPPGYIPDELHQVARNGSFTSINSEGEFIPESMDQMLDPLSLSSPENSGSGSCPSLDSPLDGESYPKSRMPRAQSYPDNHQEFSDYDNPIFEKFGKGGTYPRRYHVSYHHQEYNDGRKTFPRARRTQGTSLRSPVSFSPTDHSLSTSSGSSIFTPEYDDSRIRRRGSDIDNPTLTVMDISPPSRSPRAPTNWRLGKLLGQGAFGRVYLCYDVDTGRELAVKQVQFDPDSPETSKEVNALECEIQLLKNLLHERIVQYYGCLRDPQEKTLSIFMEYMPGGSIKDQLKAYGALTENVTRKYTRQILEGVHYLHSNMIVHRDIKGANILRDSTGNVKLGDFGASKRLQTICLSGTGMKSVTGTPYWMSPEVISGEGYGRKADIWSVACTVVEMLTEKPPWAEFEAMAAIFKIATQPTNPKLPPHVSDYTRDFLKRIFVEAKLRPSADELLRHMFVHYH
# [15] = molecular target: Mitogen-activated protein kinase kinase kinase 6 (Homo sapiens) (UniProt O95382); test: Inhibition of human MEKK6 at 100 nM using MBP as substrate by [gamma-33P]-ATP assay
# [16] = molecular target: Mitogen-activated protein kinase kinase kinase 21 (Homo sapiens) (UniProt Q5TCX8); test: Inhibition of human MLK4 at 100 nM using MEK1 as substrate by [gamma-33P]-ATP assay
# Mitogen-activated protein kinase kinase kinase 21 (Homo sapiens), sequence (Q5TCX8 whole entry): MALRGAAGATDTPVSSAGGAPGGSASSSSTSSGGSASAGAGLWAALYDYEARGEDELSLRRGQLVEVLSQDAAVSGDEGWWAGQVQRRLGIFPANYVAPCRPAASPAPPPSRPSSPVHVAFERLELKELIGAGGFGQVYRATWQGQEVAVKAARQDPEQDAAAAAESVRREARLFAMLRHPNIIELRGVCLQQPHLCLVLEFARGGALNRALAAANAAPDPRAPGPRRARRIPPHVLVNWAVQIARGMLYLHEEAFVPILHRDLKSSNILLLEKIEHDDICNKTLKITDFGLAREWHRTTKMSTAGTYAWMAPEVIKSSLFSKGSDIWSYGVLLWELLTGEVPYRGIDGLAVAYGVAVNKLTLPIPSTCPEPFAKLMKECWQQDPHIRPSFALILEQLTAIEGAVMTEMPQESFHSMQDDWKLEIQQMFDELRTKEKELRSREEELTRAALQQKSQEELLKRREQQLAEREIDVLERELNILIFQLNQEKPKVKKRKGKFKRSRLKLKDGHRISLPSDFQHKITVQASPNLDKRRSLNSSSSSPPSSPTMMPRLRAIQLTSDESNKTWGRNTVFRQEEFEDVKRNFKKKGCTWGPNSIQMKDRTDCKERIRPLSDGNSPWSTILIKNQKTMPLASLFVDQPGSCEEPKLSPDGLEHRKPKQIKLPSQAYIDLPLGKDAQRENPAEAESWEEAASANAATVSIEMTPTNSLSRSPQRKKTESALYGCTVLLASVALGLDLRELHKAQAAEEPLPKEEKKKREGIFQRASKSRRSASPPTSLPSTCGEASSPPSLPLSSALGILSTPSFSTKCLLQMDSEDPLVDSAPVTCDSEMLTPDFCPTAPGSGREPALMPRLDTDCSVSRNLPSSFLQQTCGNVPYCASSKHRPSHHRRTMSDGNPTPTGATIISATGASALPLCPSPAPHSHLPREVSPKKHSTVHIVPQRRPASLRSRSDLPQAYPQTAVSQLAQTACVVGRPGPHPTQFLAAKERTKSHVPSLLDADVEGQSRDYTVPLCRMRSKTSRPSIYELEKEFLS
# [17] = molecular target: Myosin-IIIa (Homo sapiens) (UniProt Q8NEV4); test: Inhibition of human MYO3A at 100 nM using MBP as substrate by [gamma-33P]-ATP assay
# [18] = molecular target: Serine/threonine-protein kinase Nek1 (Homo sapiens) (UniProt Q96PY6); test: Inhibition of human NEK1 at 100 nM using MBP as substrate by [gamma-33P]-ATP assay
# Serine/threonine-protein kinase Nek1 (Homo sapiens), sequence (Q96PY6 whole entry): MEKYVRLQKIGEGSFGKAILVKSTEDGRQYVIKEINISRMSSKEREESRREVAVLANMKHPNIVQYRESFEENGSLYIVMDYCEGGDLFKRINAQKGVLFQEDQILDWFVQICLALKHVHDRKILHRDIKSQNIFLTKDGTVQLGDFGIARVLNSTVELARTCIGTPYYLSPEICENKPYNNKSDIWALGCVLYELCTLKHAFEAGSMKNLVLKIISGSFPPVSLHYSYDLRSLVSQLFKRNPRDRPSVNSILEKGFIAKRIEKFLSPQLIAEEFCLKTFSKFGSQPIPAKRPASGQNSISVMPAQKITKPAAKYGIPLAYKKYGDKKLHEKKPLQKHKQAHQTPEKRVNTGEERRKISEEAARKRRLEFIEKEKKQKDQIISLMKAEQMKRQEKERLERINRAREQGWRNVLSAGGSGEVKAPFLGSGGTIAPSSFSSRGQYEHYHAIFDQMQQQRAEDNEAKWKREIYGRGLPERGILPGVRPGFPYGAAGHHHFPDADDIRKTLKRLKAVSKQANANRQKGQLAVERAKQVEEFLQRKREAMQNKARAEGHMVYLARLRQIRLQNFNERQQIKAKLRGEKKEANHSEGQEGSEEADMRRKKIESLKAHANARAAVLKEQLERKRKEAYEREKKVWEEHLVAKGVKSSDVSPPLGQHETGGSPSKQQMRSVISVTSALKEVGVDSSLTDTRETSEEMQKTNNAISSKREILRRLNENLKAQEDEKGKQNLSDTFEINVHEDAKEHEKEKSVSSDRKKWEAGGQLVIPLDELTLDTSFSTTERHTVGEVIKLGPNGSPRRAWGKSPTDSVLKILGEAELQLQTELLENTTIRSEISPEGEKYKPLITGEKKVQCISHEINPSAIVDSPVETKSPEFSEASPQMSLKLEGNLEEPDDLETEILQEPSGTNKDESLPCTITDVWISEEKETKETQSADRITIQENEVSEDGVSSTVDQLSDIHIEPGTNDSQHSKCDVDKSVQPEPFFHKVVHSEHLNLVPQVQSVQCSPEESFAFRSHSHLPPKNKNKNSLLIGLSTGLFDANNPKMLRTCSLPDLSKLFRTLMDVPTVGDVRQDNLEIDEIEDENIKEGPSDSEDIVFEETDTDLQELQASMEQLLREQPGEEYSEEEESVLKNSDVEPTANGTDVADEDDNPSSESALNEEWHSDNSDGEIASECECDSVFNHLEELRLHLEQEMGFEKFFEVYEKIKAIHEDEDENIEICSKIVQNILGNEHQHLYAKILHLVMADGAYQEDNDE
# [19] = molecular target: Mitogen-activated protein kinase 13 (Homo sapiens) (UniProt O15264); test: Inhibition of human p38delta at 100 nM using MBP as substrate by [gamma-33P]-ATP assay
# [20] = molecular target: Lymphokine-activated killer T-cell-originated protein kinase (Homo sapiens) (UniProt Q96KB5); test: Inhibition of human PBK at 100 nM using MBP as substrate by [gamma-33P]-ATP assay
# [21] = molecular target: Serine/threonine-protein kinase D3 (Homo sapiens) (UniProt O94806); test: Inhibition of human PKCnu at 100 nM using KKLNRTLSVA as substrate by [gamma-33P]-ATP assay
# [22] = molecular target: Serine/threonine-protein kinase D2 (Homo sapiens) (UniProt Q9BZL6); test: Inhibition of human PKD2 at 100 nM using KKLNRTLSVA as substrate by [gamma-33P]-ATP assay
# [23] = molecular target: Ribosomal protein S6 kinase alpha-1 (Homo sapiens) (UniProt Q15418); test: Inhibition of human RSK1 at 100 nM using KKLNRTLSVA as substrate by [gamma-33P]-ATP assay
# [24] = molecular target: Serine/threonine-protein kinase SIK2 (Homo sapiens) (UniProt Q9H0K1); test: Inhibition of human SIK2 at 100 nM using AMARAASAAALARRR as substrate by [gamma-33P]-ATP assay
# [25] = molecular target: NUAK family SNF1-like kinase 2 (Homo sapiens) (UniProt Q9H093); test: Inhibition of human SNARK at 100 nM using KKKVSRSGLYRSPSMPENLNRPR as substrate by [gamma-33P]-ATP assay
# NUAK family SNF1-like kinase 2 (Homo sapiens), sequence (Q9H093 whole entry): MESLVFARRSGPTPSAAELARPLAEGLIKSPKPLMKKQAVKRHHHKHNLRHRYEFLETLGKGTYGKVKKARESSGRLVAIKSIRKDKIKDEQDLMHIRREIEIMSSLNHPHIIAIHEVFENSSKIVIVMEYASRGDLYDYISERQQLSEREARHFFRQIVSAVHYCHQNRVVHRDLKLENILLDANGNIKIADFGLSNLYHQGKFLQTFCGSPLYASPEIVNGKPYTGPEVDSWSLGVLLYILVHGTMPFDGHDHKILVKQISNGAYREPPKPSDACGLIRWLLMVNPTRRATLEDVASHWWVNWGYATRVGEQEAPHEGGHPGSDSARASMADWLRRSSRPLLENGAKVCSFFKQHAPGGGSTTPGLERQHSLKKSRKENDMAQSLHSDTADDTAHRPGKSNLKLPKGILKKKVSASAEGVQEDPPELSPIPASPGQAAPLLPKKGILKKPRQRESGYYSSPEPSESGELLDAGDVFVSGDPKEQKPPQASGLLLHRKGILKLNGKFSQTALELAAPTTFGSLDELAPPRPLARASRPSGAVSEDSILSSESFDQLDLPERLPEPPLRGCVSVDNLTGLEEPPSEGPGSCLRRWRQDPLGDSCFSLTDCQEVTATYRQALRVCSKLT
# [26] = molecular target: SRSF protein kinase 1 (Homo sapiens) (UniProt Q96SB4); test: Inhibition of human SRPK1 at 100 nM using GRSRSRSRSR as substrate by [gamma-33P]-ATP assay
# [27] = molecular target: Serine/threonine-protein kinase 38-like (Homo sapiens) (UniProt Q9Y2H1); test: Inhibition of human STK38L at 100 nM using KKRNRRLSVA as substrate by [gamma-33P]-ATP assay
# Serine/threonine-protein kinase 38-like (Homo sapiens), sequence (Q9Y2H1 2-464 limits assumed): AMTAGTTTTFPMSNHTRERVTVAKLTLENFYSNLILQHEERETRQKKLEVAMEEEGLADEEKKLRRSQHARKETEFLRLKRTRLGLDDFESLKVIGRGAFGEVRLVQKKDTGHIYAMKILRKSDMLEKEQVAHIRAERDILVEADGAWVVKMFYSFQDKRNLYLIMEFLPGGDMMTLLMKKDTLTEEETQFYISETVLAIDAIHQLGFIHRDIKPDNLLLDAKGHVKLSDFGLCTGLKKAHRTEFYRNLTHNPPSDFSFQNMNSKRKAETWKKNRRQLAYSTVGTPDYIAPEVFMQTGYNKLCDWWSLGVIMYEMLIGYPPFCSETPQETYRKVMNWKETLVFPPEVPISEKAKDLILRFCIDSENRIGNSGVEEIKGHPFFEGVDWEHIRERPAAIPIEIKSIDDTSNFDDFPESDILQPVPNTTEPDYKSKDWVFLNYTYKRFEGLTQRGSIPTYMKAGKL
# [28] = molecular target: NT-3 growth factor receptor (Homo sapiens) (UniProt Q16288); test: Inhibition of human TRKC at 100 nM using poly[Glu:Tyr] (4:1) as substrate by [gamma-33P]-ATP assay
# [29] = molecular target: Serine/threonine-protein kinase VRK2 (Homo sapiens) (UniProt Q86Y07); test: Inhibition of human VRK2 at 100 nM using casein as substrate by [gamma-33P]-ATP assay
# [30] = molecular target: Tyrosine-protein kinase Yes (Homo sapiens) (UniProt P07947); test: Inhibition of human YES at 100 nM using poly[Glu:Tyr] (4:1) as substrate by [gamma-33P]-ATP assay
# Tyrosine-protein kinase Yes (Homo sapiens), sequence (P07947 2-543 limits assumed): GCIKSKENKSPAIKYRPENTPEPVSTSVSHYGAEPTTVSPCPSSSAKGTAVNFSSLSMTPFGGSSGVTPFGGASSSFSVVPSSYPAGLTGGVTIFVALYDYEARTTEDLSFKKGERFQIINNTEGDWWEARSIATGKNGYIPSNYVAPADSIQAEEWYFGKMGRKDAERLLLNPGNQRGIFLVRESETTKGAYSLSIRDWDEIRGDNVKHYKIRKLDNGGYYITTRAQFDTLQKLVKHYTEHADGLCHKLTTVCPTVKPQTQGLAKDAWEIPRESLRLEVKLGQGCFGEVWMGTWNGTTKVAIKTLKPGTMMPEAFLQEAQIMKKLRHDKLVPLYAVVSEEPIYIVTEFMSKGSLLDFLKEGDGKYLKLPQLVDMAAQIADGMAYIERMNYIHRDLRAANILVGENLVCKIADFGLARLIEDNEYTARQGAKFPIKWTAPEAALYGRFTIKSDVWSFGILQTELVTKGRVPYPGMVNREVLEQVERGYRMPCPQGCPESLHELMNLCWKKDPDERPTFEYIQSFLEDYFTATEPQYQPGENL
# [31] = molecular target: [Pyruvate dehydrogenase (acetyl-transferring)] kinase isozyme 1, mitochondrial (Homo sapiens) (UniProt Q15118); test: Inhibition of human PDK1 at 100 nM using MBP as substrate by [gamma-33P]-ATP assay
# HepG2 = test: cells; conditions: Homo sapiens, HepG2, 72 h
structure (smiles),measurement,setting,value
COc1ccc(N2C(=O)COc3ccc(-c4cnc(OC)c(NS(=O)(=O)c5ccc(F)cc5)c4)cc32)cc1,Activity,PC-12,Non-Toxic
same,IC50,HeLa [1],1.22 µM
same,inhibition (INH),HeLa [2],<=100%
same,Activity,[3],Non-Toxic
same,inhibition,[4],-8.35%
same,inhibition,[5],2.39%
same,inhibition,[6],5.47%
same,inhibition,[7],7.52%
same,inhibition,[8],7.47%
same,inhibition,[9],6.64%
same,inhibition,[10],-9.63%
same,inhibition,[11],-2.71%
same,inhibition,[12],6.2%
same,inhibition,[13],-0.95%
same,inhibition,[14],28.4%
same,inhibition,[15],3.96%
same,inhibition,[16],5.78%
same,inhibition,[17],2.8%
same,inhibition,[18],19%
same,inhibition,[19],13.9%
same,inhibition,[20],0.99%
same,inhibition,[21],2.41%
same,inhibition,[22],-3.61%
same,inhibition,[23],10.8%
same,inhibition,[24],-3.42%
same,inhibition,[25],4.8%
same,inhibition,[26],1.44%
same,inhibition,[27],-2.59%
same,inhibition,[28],2.63%
same,inhibition,[29],7%
same,inhibition,[30],3.18%
same,inhibition,[31],25.8%
same,IC50,HepG2,13.1 µM
